Values of other authors in paper PMC11949389 (Polish Journal of Microbiology, 2025).
pEC50, pIC50: −log10 of the molar value. Values after ≈ are worked out from the molar mass of the structure shown. Like-named read-outs stand apart in the source and are kept apart here.

What was measured:
[1] = tested on: Enterococcus sp.; details: ref Caballero Gómez et al. 2022
[2] = tested on: Staphylococcus sp.; details: ref Caballero Gómez et al. 2022
[3] = tested on: Streptococcus suis; details: ref de Aguiar et al. 2019
[4] = tested on: Malassezia pachydermatis; details: ref Schlemmer et al. 2019, Sim et al. 2019
[5] = tested on: Pseudomonas sp.; details: ref Caballero Gómez et al. 2022
[6] = tested on: Vibrio anguillarum; details: ref Rossi et al. 2021
[7] = tested on: Vibrio harveyi; details: ref Rossi et al. 2021
[8] = tested on: Enterococcus, Pseudomonas, and Staphylococcus strains; details: ref Caballero Gómez et al. (2022)
[9] = tested on: Vibrio anguillarum, and Vibrio harveyi; details: ref Rossi et al. (2021)
[10] = tested on: Vancomycin-sensitive Enterococcus (VSE)
[11] = tested on: Vancomycin-resistant Enterococcus (VRE); details: vancomycin-resistant enterococci strains; ref Owen et al. (2019)
[12] = tested on: Methicillin-susceptible Staphylococcus aureus; details: ref Owen et al. 2019
[13] = tested on: Ciprofloxacin-resistant Escherichia coli; details: resistant E. coli strains; ref Owen et al. (2019)
[14] = tested on: Escherichia coli; details: antibiotic-sensitive E. coli; ref Owen et al. (2019)
[15] = tested on: amphotericin B-resistant C. albicans; details: varying among Candida isolates; ref Touil et al. (2020)
[16] = tested on: bacteria co-isolated with C. albicans; details: ref Touil et al. (2020)
[17] = tested on: C. albicans and co-isolated bacteria; details: carvacrol combined with cuminaldehyde; ref Touil et al. (2020)
[18] = tested on: Klebsiella pneumoniae; details: ref Sayout et al. 2020, de Souza et al. 2021, Kwiatkowski et al. 2022
[19] = tested on: Acinetobacter baumannii; details: ref Choudhary et al. 2022
[20] = tested on: bovine mastitis; details: versus antibiotic treatment, ref Guo et al. 2023
[21] = tested on: Staphylococcus aureus; details: for MIC/Sensitivity: Staphylococcus aureus, ref Kwiatkowski et al. 2020, Sayout et al. 2020, Sousa Silveira et al. 2020, Macêdo et al. 2022, Noumi et al. 2023, Sharma et al. 2023; for MIC: S. aureus
[22] = tested on: Mupirocin-susceptible Staphylococcus aureus; details: ref Kwiatkowski et al. 2019
[23] = tested on: Mupirocin-resistant Staphylococcus aureus; details: ref Kwiatkowski et al. 2019
[24] = tested on: Acinetobacter baumannii; details: for MIC/Sensitivity: ref Sayout et al. 2020
[25] = tested on: Enterobacter aerogenes; details: ref Sayout et al. 2020
[26] = tested on: Enterobacter cloacae; details: ref Sayout et al. 2020
[27] = tested on: Klebsiella oxytoca; details: ref Sayout et al. 2020
[28] = tested on: Salmonella spp.; details: ref Sayout et al. 2020
[29] = tested on: Ciprofloxacin-resistant Pseudomonas aeruginosa; details: resistant P. aeruginosa strains; ref Owen et al. (2019)
[30] = tested on: Pseudomonas aeruginosa
[31] = tested on: Staphylococcus pseudintermedius; details: Staphylococcus pseudintermedius; ref Sim et al. 2019
[32] = tested on: β-haemolytic Streptococcus spp.; details: ref Sim et al. 2019
[33] = tested on: Campylobacter jejuni; details: for MIC/Sensitivity: Campylobacter jejuni, ref Šimunović et al. 2020; for MIC: ref Šimunović et al. (2020)
[34] = tested on: Proteus mirabilis; details: ref Sim et al. 2019
[35] = tested on: Candida albicans; details: Candida albicans; ref Sharifzadeh et al. 2019; Iraji et al. 2020; Shaban et al. 2020; Stringaro et al. 2022; Biernasiuk et al. 2022
[36] = tested on: Candida auris; details: Candida auris; ref Shaban et al. 2020
[37] = tested on: Candida glabrata; details: Candida glabrata; ref Sharifzadeh et al. 2019; Iraji et al. 2020; Biernasiuk et al. 2022; Stringaro et al. 2022
[38] = tested on: Candida krusei; details: Candida krusei; ref Sharifzadeh et al. 2019; Iraji et al. 2020; Biernasiuk et al. 2022; Stringaro et al. 2022
[39] = tested on: Candida tropicalis; details: Candida tropicalis; ref Iraji et al. 2020; Stringaro et al. 2022
[40] = tested on: Salmonella Thyphimurium; details: ref Giovagnoni et al. 2020
[41] = tested on: Candida albicans; details: ref Shaban et al. 2020
[42] = tested on: Candida auris; details: ref Shaban et al. 2020
[43] = tested on: staphylococcal isolates; details: ref Sim et al. 2019
[44] = tested on: Salmonella Typhimurium; details: ref Giovagnoni et al. (2020)
[45] = tested on: Candida species; details: ref Stringaro et al. (2022)
[46] = tested on: HIV-1; details: HIV-1; ref Mediouni et al. (2020)
[47] = tested on: TetK efflux pump; details: S. aureus, ref Sousa Silveira et al. (2020)
[48] = tested on: Chikungunya virus (CHIKV); details: ref Kumar et al. (2021)
[49] = tested on: Methicillin-resistant Staphylococcus aureus; details: Methicillin-resistant Staphylococcus aureus; ref Owen et al. 2019
[50] = tested on: Campylobacter jejuni
[51] = tested on: influenza H1N1; details: 20 μg/ml; ref Panagiotopoulos et al. (2021)

O=C/C=C/c1ccccc1 [Cinnamaldehyde]
MIC/Sensitivity [1]: 0.01 to 0.05 mg/mL | MIC/Sensitivity [2]: 0.01 to 0.05 mg/mL | MIC/Sensitivity [3]: 0.15625 to 0.3125 mg/mL | MIC/Sensitivity [4]: 0.0025 to 0.64 mg/mL | MIC/Sensitivity [5]: 0.01 to 0.05 mg/mL | MIC/Sensitivity [6]: 555.75 mg/mL (≈ 4210 mM) | MIC/Sensitivity [7]: 278.616 mg/mL (≈ 2110 mM) | MIC [8]: 0.01 to 0.05 mg/mL | MIC [9]: 0.94 to 7.5 mM

CC(C)c1ccc(C=O)cc1 [Cuminaldehyde]
MIC ([10]; vancomycin-susceptible enterococci (VSE), ref Owen et al. (2019)): 134.41 mM (≈ 19900 µg/mL) | MIC [11]: 537.65 mM (≈ 79700 µg/mL) | MIC/Sensitivity [12]: 4979.52 mg/mL (≈ 33600 mM) | MIC [13]: 8.40 mM (≈ 1240 µg/mL) | MIC [14]: 2.10 mM (≈ 311 µg/mL) | MIC [15]: 2 to 4 mg/mL | MIC [16]: 1,000–4,000 μg/ml | MIC in combination [17]: 500–2,000 μg/ml

CC(C)=CCC/C(C)=C/CO [Geraniol]
MIC/Sensitivity [1]: 0.1 to 0.35 mg/mL | MIC/Sensitivity [2]: 0.1 to 0.4 mg/mL | MIC/Sensitivity [18]: 1.74 mg/mL (≈ 11.3 mM) | MIC/Sensitivity [5]: 0.1 to 0.4 mg/mL | Mechanisms of action [19]: • Reduction in exopolysaccharide production • Disruption and inhibition of biofilm • Downregulation of csuE gene | MIC [9]: 0.94 to 7.5 mM | therapeutic effect [20]: equivalent therapeutic effects

C=CC(C)(O)CCC=C(C)C (centres unmarked) [Linalool]
reduction in vancomycin’s MIC ([10]; binary combinations with vancomycin, VSE, ref Owen et al. (2020)): four to eight-fold reduction | MIC/Sensitivity [21]: 0.00288 to 6.8 mg/mL | MIC/Sensitivity [22]: 6.8 mg/mL (≈ 44.1 mM) | MIC/Sensitivity [23]: 2.83 mg/mL (≈ 18.3 mM) | MIC/Sensitivity [24]: 0.00144 mg/mL (≈ 0.00934 mM) | MIC/Sensitivity [25]: 0.00144 mg/mL (≈ 0.00934 mM) | MIC/Sensitivity [26]: 0.00192 mg/mL (≈ 0.0124 mM) | MIC/Sensitivity [27]: 0.00144 mg/mL (≈ 0.00934 mM) | MIC/Sensitivity [18]: 0.00383 mg/mL (≈ 0.0248 mM) | MIC/Sensitivity [28]: 0.00288 mg/mL (≈ 0.0187 mM) | MIC [29]: 912.90 mM (≈ 141000 µg/mL) | MIC ([30]; antibiotic-sensitive P. aeruginosa, ref Owen et al. (2019)): 228.20 mM (≈ 35200 µg/mL) | activity at the tested concentrations [9]: no activity

Cc1ccc(C(C)C)c(O)c1 [Thymol]
MIC/Sensitivity [1]: 0.2 to 0.45 mg/mL | MIC/Sensitivity [2]: 0.2 to 0.4 mg/mL | MIC ([21]; ref Sharma et al. (2023)): 0.125 to 0.25 mg/mL | MIC ([21]; ref Sousa Silveira et al. (2020)): 0.072 mg/mL (≈ 0.479 mM) | MIC/Sensitivity [21]: 0.072 to 0.8 mg/mL | MIC/Sensitivity [31]: 0.1 to 0.2 mg/mL | MIC/Sensitivity ([32]; β-haemolytic Streptococcus spp.): 0.2 to 0.4 mg/mL | MIC90 ([32]; β-hemolytic Streptococcus): 0.292 to 0.4 mg/mL | MIC/Sensitivity [3]: 0.15625 mg/mL (≈ 1.04 mM) | FICI ([24]; combined with ciprofloxacin, ref Aleksic Sabo et al. (2021)): 0.25–0.32 | MIC/Sensitivity [33]: 0.03125 mg/mL (≈ 0.208 mM) | MIC [33]: 31.25 µg/mL (≈ 0.208 mM) | MIC/Sensitivity [18]: 0.78 mg/mL (≈ 5.19 mM) | MIC/Sensitivity [4]: 0.01 to 0.8 mg/mL | MIC90 [34]: 0.2 to 0.292 mg/mL | MIC/Sensitivity [34]: 0.2 mg/mL (≈ 1.33 mM) | MIC/Sensitivity [5]: 0.1 to 0.3 mg/mL | MIC90 ([30]; P. aeruginosa, ref Sim et al. 2019): 0.8 mg/mL (≈ 5.33 mM) | MIC/Sensitivity ([30]; Pseudomonas aeruginosa, ref Owen et al. 2019, Sim et al. 2019, Noumi et al. 2023): 0.4 to 0.8 mg/mL | MIC/Sensitivity [35]: 0.195 to 0.625 mg/mL | MIC [36]: 0.312 mg/mL (≈ 2.08 mM) | MIC/Sensitivity [36]: 0.312 mg/mL (≈ 2.08 mM) | MIC/Sensitivity [37]: 0.39 mg/mL (≈ 2.6 mM) | MIC/Sensitivity [38]: 0.39 mg/mL (≈ 2.6 mM) | MIC/Sensitivity [39]: 0.39 mg/mL (≈ 2.6 mM) | Mechanisms of action [40]: • Anti-inflammatory effects • Anti-oxidant properties • Enhanced epithelial barrier integrity • Reduction of bacterial translocation • Improved transepithelial electrical resistance • Inhibited bacterial growth | Mechanisms of action [41]: • Reduced proteinase production | Mechanisms of action [42]: • Reduced proteinase production and host cell adherence | MIC90 [43]: 0.146 to 0.2 mg/mL | MIC [9]: 0.94 to 7.5 mM | MIC [44]: 1.87 mM (≈ 281 µg/mL) | MIC [45]: 0.195 to 0.39 mg/mL | pIC50 [46]: 4.60 | efflux pump inhibition [47]: did not act as efflux pump inhibitors

CC1=CC(=O)C(C(C)C)=CC1=O [Thymoquinone]
MIC/Sensitivity [33]: 0.03125 mg/mL (≈ 0.19 mM) | MIC [33]: 31.25 µg/mL (≈ 0.19 mM) | pEC50 ([48]; CHIKV replication): 5.35 | reduction of CHIKV titer ([48]; plaque reduction assay, 20 μM): over 90%

Cc1ccc(C(C)C)cc1 [p-Cymene]
MIC/Sensitivity [21]: 0.01025 mg/mL (≈ 0.0764 mM) | MIC/Sensitivity [12]: 1075.1022 mg/mL (≈ 8010 mM) | MIC/Sensitivity [49]: 2150.2044 mg/mL (≈ 16000 mM) | MIC/Sensitivity [24]: 0.00513 mg/mL (≈ 0.0382 mM) | MIC/Sensitivity [33]: 1 mg/mL (≈ 7.45 mM) | MIC [33]: 1,000 μg/ml | MIC/Sensitivity [26]: 0.0041 mg/mL (≈ 0.0305 mM) | MIC/Sensitivity [18]: 0.01025 mg/mL (≈ 0.0764 mM) | efflux pump inhibition ([50]; C. jejuni, ref Šimunović et al. (2020)): inhibited efflux pumps | Mechanisms of action ([50]; Campylobacter jejuni, ref Šimunović et al. 2020): • Inhibition of efflux pump | effect on influenza H1N1 [51]: reduced virus protein expression and impaired nuclear translocation
